Where a name gives a salt, the structure may show the parent alone.
Experiments:
[1] = system: cerebral metabolism of serotonin; test: Percent increase in cerebral endogenic level of 5-HTP, 5-HT and 5-HIAA in the rat after intragastric administration; format: in vivo; conditions: 1 hour
Protocol: This study, carried out in the rat, determined the efficacy of the compositions according to the present invention on the cerebral metabolism of serotonin and established the potentiation of the serotoninogenic effect with respect to the reference (L)-5-HTP. (Purine, pyrimidine, and pyridine bases are, of themselves, entirely devoid of this activity.)
The animals were male adult rats of the OFA stain weighing 160 to 180 g. They were subjected to an alternating light cycle of 12 hours of light and 12 hours of darkness.
The various derivatives according to the invention were administered in distilled water intragastically at doses of 10, 25, and 50 mg/kg. After one hour, the rats were decapitated; and the contents of 5-hydroxytryptamine (5-HT), of 5-HIAA, and of 5-hydroxytryptophane in the brains were determined by the methods published by G. Curzon and Cool, [Brit. J. Pharmaco., 39, 653 (1970)].
They represent the percentage increase of cerebral endogenic levels at 10, 25, 50 mg/kg of the pure (L)-5-HTP (control) and of compositions according to the present invention for a given batch of control rats.

[2] = system: blood levels of 5-HTP and 5-hydroxyindolacetic acid (5-HIAA); test: Clinical results: blood levels of 5-HTP and 5-HIAA; format: in vivo; conditions: for blood levels of 5-HTP / blood levels of 5-hydroxyindolacetic acid (5-HIAA): clinical results; for blood levels of 5-hydroxyindolacetic acid (5-HIAA): principal metabolite of serotonin
Source text: In interpreting the clinical results of these remarkable medicaments, the applicants have observed that a complex of inosine with 5-HTP, particularly a complex of inosine with (L)-5-HTP, triples the blood levels of 5-HTP and 5-hydroxyindolacetic acid (5-HIAA), the principal metabolite of serotonin.

[3] = system: mice; test: Toxicity, LD50 per os/mice; format: in vivo
Source text: (§1) The toxicities of the salts and the complexes of 5-HTP according to the present invention are very low as witnessed by the LD50 's per os/mice assembled in Table 2 below: […]

[4] = Aqueous solubility
[5] = system: cerebral serotonin; conditions: 5-HTP alone; cited from earlier work
[6] = prolonged administration of high doses; cited from earlier work
[7] = Toxicity, LD50 per os/mice; format: in vivo; conditions: mouse, in vivo, po, mice
Source text: as §1

[8] = system: receptors of benzodiazepines; conditions: P. Skolnick, 1979; cited from earlier work

| Compound | Percent increase in cerebral endogenic level of 5-HIAA ([1]; 10 mg/kg) | Percent increase in cerebral endogenic level of 5-HT ([1]; 10 mg/kg) | Percent increase in cerebral endogenic level of 5-Ht + 5-HIAA ([1]; 10 mg/kg) | Percent increase in cerebral endogenic level of (L)-5-HTP ([1]; 10 mg/kg) | Percent increase in cerebral endogenic level of 5-HIAA ([1]; 25 mg/kg) | Percent increase in cerebral endogenic level of 5-HT ([1]; 25 mg/kg) | Percent increase in cerebral endogenic level of 5-Ht + 5-HIAA ([1]; 25 mg/kg) | Percent increase in cerebral endogenic level of (L)-5-HTP ([1]; 25 mg/kg) | Percent increase in cerebral endogenic level of 5-HIAA ([1]; 50 mg/kg) | Percent increase in cerebral endogenic level of 5-HT ([1]; 50 mg/kg) | Percent increase in cerebral endogenic level of 5-Ht + 5-HIAA ([1]; 50 mg/kg) | Percent increase in cerebral endogenic level of (L)-5-HTP ([1]; 50 mg/kg) | further results |
| --- | --- | --- | --- | --- | --- | --- | --- | --- | --- | --- | --- | --- | --- |
| NC(Cc1c[nH]c2ccc(O)cc12)C(=O)O.O.O=c1[nH]cnc2c1ncn2[C@@H]1O[C@H](CO)[C@@H](O)[C@H]1O (racemic) [Example 2, (DL) 5-HYDROXYTRYPTOPHANE INOSINATE] | 135% | 2% | 85% | 110% | 345% | 80% | 220% | 1665% | 1190% | 110% | 700% | 1955% | – |
| N[C@H](Cc1c[nH]c2ccc(O)cc12)C(=O)O [(D)-5-HTP, reference compound] | – | – | – | – | – | – | – | – | – | – | – | – | activity ([2]; pharmacological response): almost entire absence of activity |
| N[C@@H](Cc1c[nH]c2ccc(O)cc12)C(=O)O [(L)-5-HTP pure, (L)-5-hydroxytryptophane, reference compound] | 40% | 10% | 55% | 120% | 110% | 25% | 110% | 260% | 300% | 35% | 180% | 650% | – |
| N[C@@H](Cc1c[nH]c2ccc(O)cc12)C(=O)O.O.O=c1[nH]cnc2c1ncn2[C@@H]1O[C@H](CO)[C@@H](O)[C@H]1O [Example 1, (L)-5-HTP INOSINATE] | 165% | 2% | 100% | 135% | 290% | 100% | 195% | 1755% | 1010% | 70% | 545% | 2665% | blood levels of 5-HTP [2]: triples; blood levels of 5-hydroxyindolacetic acid (5-HIAA) [2]: triples |
| N[C@@H](Cc1c[nH]c2ccc(O)cc12)C(=O)O [Example 4, THEOPHYLLINE SALT OF (L)-5-HYDROXYTRYPTOPHANE] | 85% | – | 75% | 55% | 270% | 25% | 150% | 1200% | 870% | 35% | 490% | 1710% | LD50 per os [3]: 1000 mg/kg; solubility ([4]; water): 3500 µg/mL |
| N[C@@H](Cc1c[nH]c2ccc(O)cc12)C(=O)O [Example 5-HTP, 5-hydroxytryptophane] | – | – | – | – | – | – | – | – | – | – | – | – | decarboxylation at the peripheral level [5]: considerable decarboxylation; hepatic catabolism [5]: high hepatic catabolism; overall yield of cerebral serotonin synthesized with respect to the amount of 5-hydroxytryptophane administered [5]: very low; passage of the gastrointestinal and hematoencephalic barriers [5]: mediocre passage; renal lesions [6]: often results in renal lesions |
| Cc1ncc(CO)c(CO)c1O.Cl.N[C@@H](Cc1c[nH]c2ccc(O)cc12)C(=O)O [Example 7, EQUIMOLECULAR COMPLEX OF PYRIDOXINE WITH (L)-5-HYDROXYTRYPTOPHANE] | 35% | 20% | 40% | 190% | 230% | 80% | 165% | 420% | 755% | 25% | 390% | 2500% | – |
| N[C@@H](Cc1c[nH]c2ccc(O)cc12)C(=O)O [Example 10, NI[…] OF (L)-5-HYDROXYTRYPTOPHANE] | – | – | – | – | – | – | – | – | – | – | – | – | LD50 [7]: > 2000 mg/kg |
| N[C@@H](Cc1c[nH]c2ccc(O)cc12)C(=O)O [Example 12, CAFFEINE SALT OF (L)-5-HYDROXYTRYPTOPHANE] | – | – | – | – | – | – | – | – | – | – | – | – | LD50 per os [3]: > 2000 mg/kg |
| NC(Cc1c[nH]c2ccc(O)cc12)C(=O)O.O=c1[nH]cnc2c1ncn2C1OC(CO)C(O)C1O (stereo not shown) [complex of inosine with 5-HTP] | – | – | – | – | – | – | – | – | – | – | – | – | blood levels of 5-HTP [2]: triples; blood levels of 5-hydroxyindolacetic acid (5-HIAA) [2]: triples |
| O=c1[nH]cnc2nc[nH]c12 [hypoxanthine, 1,7-dihydropurine-6-one] | – | – | – | – | – | – | – | – | – | – | – | – | endogenous ligands of receptors of benzodiazepines [8]: can constitute endogenous ligands of receptors of benzodiazepines |
| O=c1[nH]cnc2c1ncn2[C@@H]1O[C@H](CO)[C@@H](O)[C@H]1O [inosine, 9-β-D-ribofuranosylhypoxanthine] | – | – | – | – | – | – | – | – | – | – | – | – | endogenous ligands of receptors of benzodiazepines [8]: can constitute endogenous ligands of receptors of benzodiazepines |
| EQU[…] OF (L)-5-HYDROXYT[…] OF ALLOPURINOL [Example 5] | 90% | 15% | 60% | 108% | 100% | 70% | 85% | 830% | 765% | 115% | 475% | 2100% | LD50 per os [3]: 1000 mg/kg |
| EQU[…] OF […] (DL)-5-HYDROXYTRYPTOPHANE [Example 6] | 20% | – | 8% | 115% | 90% | 30% | 65% | 230% | 360% | 60% | 210% | 1575% | solubility in water ([4]; in words): very soluble in water |
